Measurements reported in US7476380B2, “Methods for treating illnesses of the tracheo-bronchial tract, especially chronic obstructive pulmonary disease (COPD)” (GSE-Forschungszentrum fur Umwelt und Gesundheit GmbH, priority 2000, dated 2009).

What was measured:
[1] = test system: MMP-9; assay: MMP-9 expression in blood monocytes (PBMCs); assay type: cell-based, human
Description: (§1) • RPMI 1640 (Biochrom # F1415, Berlin), L-glutamine 2 mM (Gibco # 25030-024), penicillin 200 U/ml, streptomycin 200 μg/ml (Gibco # 15140-114), non-essential amino acids (NEAA) 1-2x (Gibco # 11140-35), OPI supplement (contains oxalacetate, Na pyruvate and insulin) 10 ml per 1 liter (Sigma # O-5003). Following filtration through a Gabro ultrafilter U 2000 (Martinsried, Germany) to remove LPS addition of 10% FCS, LPS tested. • Costar low attachment 24 well plates # 3473 (Bodenheim, Germany) 1×10^6 BAL cells (=cells obtained by brocho-alveolar lavage containing alveolar macrophages in an amount of about 80%) or 1.5×10^6 PBMCs (=peripheral blood mononuclear cells isolated via LymphoPrep gradient (Nycomed, Norway)), respectively, in a volume of 1 ml were used per sample. Pretreat the 24 well low attachment cell culture plate according to the manufacturer's instructions. For this purpose, fill the respective wells with 1 ml of medium and incubate for 20 min at 37° C. in an incubator. Afterwards remove the medium and replace by cell suspension. Add the liposomes loaded with vitamin A in a final concentration of 5×10^−6 M. Prepare parallel samples with pure vitamin A and empty liposomes as controls. For the measurement of MMP-9 and TIMP-1 in the culture supernatant and for determination of mRNA expression incubate the cells in an incubator for three days at 37° C. […]

[2] = test system: TIMP-1; assay: TIMP-1 expression in blood monocytes (PBMCs); assay type: cell-based, human
Description: as §1

[3] = test system: TIMP-1; assay: TIMP-1 in culture supernatant of alveolar macrophages (BAL cells), ELISA; assay type: cell-based; conditions: human alveolar macrophages; for TIMP-1 expression: 5 μM final, day 3 (day 4 the same), culture supernatant
Description: (§2) For this purpose, human alveolar macrophages (AMs) were obtained via bronchial lavage. The AMs were seeded into Mono Mac 6 medium+10% FCS onto a 24 well “low attachment” plate (Costar) using 1×10^6 cells in a volume of 1 ml per each sample. Additions of vitamin A liposomes or of the pure substances, respectively, were carried out. Cells for RT-PCR or culture supernatant for protein determinations by means of ELISA, respectively, were harvested from parallel samples each on day 1, day 3, and day 4. Specifically, the following samples were prepared: • β=control sample, AMs in medium only • Lipleer=empty liposomes • LipVitA=liposomes containing vitamin A (retinoic acid, Sigma R-2625) 5 μM final • VitA=pure vitamin A (retinoic acid, Sigma R-2625) 5 μM final • LipPalm=liposomes containing all-trans retinol palmitate (Sigma R-3375) 3 μM final • Palmitat=all-trans retinol palmitate (Sigma R-3375) 3 μM final
(§3) The culture supernatants were monitored for MMP-9 and TMP-1 content using commercial ELISA kits (Amersham Pharmacia). In each case the numerals refer to ng/ml culture supernatant based on 1×10^6 cells.
(§4) • RPMI 1640 (Biochrom # F1415, Berlin), L-glutamine 2 mM (Gibco # 25030-024), penicillin 200 U/ml, streptomycin 200 μg/ml (Gibco # 15140-114), non-essential amino acids (NEAA) 1-2x (Gibco # 11140-35), OPI supplement (contains oxalacetate, Na pyruvate and insulin) 10 ml per 1 liter (Sigma # O-5003). Following filtration through a Gabro ultrafilter U 2000 (Martinsried, Germany) to remove LPS addition of 10% FCS, LPS tested. • Costar low attachment 24 well plates # 3473 (Bodenheim, Germany) 1×10^6 BAL cells (=cells obtained by brocho-alveolar lavage containing alveolar macrophages in an amount of about 80%) or 1.5×10^6 PBMCs (=peripheral blood mononuclear cells isolated via LymphoPrep gradient (Nycomed, Norway)), respectively, in a volume of 1 ml were used per sample. Pretreat the 24 well low attachment cell culture plate according to the manufacturer's instructions. For this purpose, fill the respective wells with 1 ml of medium and incubate for 20 min at 37° C. in an incubator. Afterwards remove the medium and replace by cell suspension. Add the liposomes loaded with vitamin A in a final concentration of 5×10^−6 M. Prepare parallel samples with pure vitamin A and empty liposomes as controls. For the measurement of MMP-9 and TIMP-1 in the culture supernatant and for determination of mRNA expression incubate the cells in an incubator for three days at 37° C. Afterwards resuspend the cells carefully and first remove 2×10^4 cells per PCR lysate for lysis in 200 μl of RNAclean (AGS, Heidelberg, Germany)in an Eppendorf reaction vial. Store these PCR lysates at −20° C. until further use. Transfer the remaining cell suspension into an Eppendorf vial and centrifuge for 5 min at 14,000×g. Remove the supernatant, transfer into a fresh vial and store at −80° C. until measurement. Summary of the Samples: • 1. BAL cells or PBMCs, respectively without any addition • 2. BAL cells or PBMCs, respectively + empty liposomes • 3. BAL cells or PBMCs, respectively + liposomes vitA 5 μM final • 4. BAL cells or PBMCs, respectively pure vitA 5 μM final Determinations of MMP-9 and TIMP-1 on the Protein Level by ELISA
(§5) For the measurement of MMP-9 and TIMP-1 in cell culture supernatants commercially available ELISA kits of Amersham Pharmacia Biotech company (Freiburg, Germany) are used. […]

[4] = test system: TIMP; conditions: Heath et al. 1990; cited from earlier work
[5] = test system: MMP-9; assay: MMP-9 in culture supernatant of alveolar macrophages (BAL cells), ELISA; assay type: cell-based; conditions: human alveolar macrophages; for MMP-9 expression: 5 μM final, day 3 (day 4 the same), culture supernatant
Description: as §2, §3, §4, §5

[6] = test system: enzymes having gelatinase activities; conditions: Park and Kim, Mol. Cells 1999; cited from earlier work
[7] = test system: TMP-1; conditions: rat osteoblasts, depending on the dose; Overall 1995; cited from earlier work
[8] = test system: metalloproteases; conditions: rat osteoblasts; Overall 1995; cited from earlier work
[9] = test system: MMP-9/TIMP-1; assay: MMP-9/TIMP-1 ratio of alveolar macrophages (BAL cells); assay type: cell-based, human; conditions: day 3
From the text: There is increasing evidence that disorders in the protease/protease inhibitor equilibrium are the cause underlying the pathogenesis of chronic lung diseases. […] This is particularly true for patients suffering from chronic obstructive bronchitis (COPD). Among the MMPs in COPD, it is particularly the secretion of MMP-9 metalloprotease which is increased in the airways and alveoles and can no longer be completely neutralized by its natural antagonist TIMP-1 (tissue inhibitor of metalloprotease). […] An important criterion to determine the degree of the disturbance of the protease/antiprotease equilibrium is the proteinase-to-inhibitor ratio: MMP-9/TIMP-1.
For this purpose, human alveolar macrophages (AMs) were obtained via bronchial lavage. The AMs were seeded into Mono Mac 6 medium+10% FCS onto a 24 well “low attachment” plate (Costar) using 1×10^6 cells in a volume of 1 ml per each sample. Additions of vitamin A liposomes or of the pure substances, respectively, were carried out. Cells for RT-PCR or culture supernatant for protein determinations by means of ELISA, respectively, were harvested from parallel samples each on day 1, day 3, and day 4. […]
The culture supernatants were monitored for MMP-9 and TMP-1 content using commercial ELISA kits (Amersham Pharmacia). […]

[10] = day 1 following vitamin A addition

With `CC1=C(/C=C/C(C)=C/C=C/C(C)=C/CO)C(C)(C)CCC1` [retinol] the “expression of MMP-9 metalloprotease” value [1] was “clear inhibition”, the TIMP-1 inhibitor expression [2] was “stimulation” and the TIMP-1 expression [3] was “stimulation”. For the same compound, the TIMP levels [4] was 0 and the MMP-9 expression [5] was “clear inhibition”.

In the case of `CC1=C(/C=C/C(C)=C/C=C/C(C)=C/C(=O)O)C(C)(C)CCC1` [free vitamin A, all-trans retinoic acid], the “activity of enzymes having gelatinase activities (metalloproteases)” value [6] is given as “increased”, the “expression of MMP-9 metalloprotease” value [1] is given as “clear inhibition” and the “mRNA levels of TMP-1” value [7] is given as “clearly reduced”. For the same compound, the expression of metalloproteases [8] was “increases”, the TIMP-1 inhibitor expression [2] was “stimulation” and the TIMP-1 expression [3] was “increase”. The TIMP-1 expression ([3]; listed as retinoic acid) was “stimulation”, the MMP-9 expression [5] was “strongly reduced” and the MMP-9 expression ([5]; listed as retinoic acid) was “clear inhibition”.

For vitamin A, the “effect on the MMP-9/TIMP-1 ratio” value [9] was “drastic effect”, the TIMP-1 expression [3] was “significantly stimulates” and the “TIMP-1 on the protein level, day 1” value [3, 10] was “no effect”. For the same compound, the MMP-9 expression [5] was “significantly inhibits” and the “MMP-9 on the protein level, day 1” value [5, 10] was “no effect”.
